Data: patent US20120322060A1, “DIAGNOSIS AND MONITORING TREATMENT OF PSYCHIATRIC DISEASES WITH SPADIN AND RELATED METHODS” (CENTRE NATIONAL DE LE RECHERCHE SCIENTIFIQUE - CNRS -, priority 2011, published 2012)
Several values for one entry are separate records, joined by “and”; a condition that tells them apart may be missing. Equal values may be shown once. No end group written: not given here.

Experiments:
[1] = test system: CREB; experiment: Total CREB and pCREB Western blotting of hippocampus; type: in vivo, mouse; settings: 4-day treatment, i.p. 10^-5 M, hippocampus extracts
Experimental: Mouse brains were dissected on ice. Isolated hippocampi (1-2 mg wet tissue/100 μl) were homogenized in a solubilization buffer containing 20 mM HEPES (pH:7.9), 0.4 M NaCl, 20% (v/v) glycerol, 1% (v/v) Nonidet P-40, 5 mM MgCl2, 0.5 mM EDTA, 0.1 mM EGTA and protease inhibitor cocktail using a dounce homogenizer. The homogenates were centrifuged 30 min at 15,000×g at 4° C. Supernatants were stored at −70° C. until further use. Protein concentrations were measured using conventional Bradford's method. Samples ([…] proteins from each experimental group) were resuspended in SDS buffer, sonicated, boiled for 5 min before loading on 10% SDS PAGE gels and electrophoresed for 2 hours at 60 mA. Proteins were then transferred from gels onto Hybond-PVDF membranes (Amersham Biosciences) in blotting buffer (156 mM Tris, 1 M glycine, PBS) for 90 min at 80 mA and blocked with 5% skim milk (Regilait) in PBS for 2 hours at room temperature. […] Total CREB or tubulin contents were determined after stripping by using 1/1000 dilution of anti-CREB antibody (Cell Signaling Technology) and 1/1000 dilution of anti-tubulin antibody (Sigma-Aldrich). […] Relative intensities of the labeled bands were analyzed by densitometric scanning using Image) imaging system. CREB activation was expressed as the ratio between pCREB and total CREB present in each sample.

[2] = in vivo
Experimental: Since spadin exerted efficient effects after i.p. or i.v. administration, we evaluated its ability to pass through the blood-brain barrier. ^125I-labelled spadin (1 nmol of spadin plus 2×10^6 cpm ^125I-spadin) was i.v. injected and animals were sacrificed 30 min following injection. The brains were rapidly removed and homogenized. The radioactivity recovered in the brain was acid-extracted, quantified and analyzed by HPLC. […] The concentration of spadin recovered into the brain was estimated to stand around 10 nM, a concentration that corresponds to the affinity of spadin for TREK-1 and sufficient to be active on TREK-1 channel activity. This value was also in the same range of the IC50 determined by electrophysiological measurements (FIG. 3C).

[3] = biological target: T1, TREK-1 (Mus musculus, UniProt P97438); experiment: Association kinetics / internalization of 125I-spadin on COS-7 cells expressing TREK-1; type: cell-based; parameters: expressed in transfected cells; host or cells: COS-7 (DEAE-dextran transfection); settings: 37° C.
T1 sequence (P97438 1-426): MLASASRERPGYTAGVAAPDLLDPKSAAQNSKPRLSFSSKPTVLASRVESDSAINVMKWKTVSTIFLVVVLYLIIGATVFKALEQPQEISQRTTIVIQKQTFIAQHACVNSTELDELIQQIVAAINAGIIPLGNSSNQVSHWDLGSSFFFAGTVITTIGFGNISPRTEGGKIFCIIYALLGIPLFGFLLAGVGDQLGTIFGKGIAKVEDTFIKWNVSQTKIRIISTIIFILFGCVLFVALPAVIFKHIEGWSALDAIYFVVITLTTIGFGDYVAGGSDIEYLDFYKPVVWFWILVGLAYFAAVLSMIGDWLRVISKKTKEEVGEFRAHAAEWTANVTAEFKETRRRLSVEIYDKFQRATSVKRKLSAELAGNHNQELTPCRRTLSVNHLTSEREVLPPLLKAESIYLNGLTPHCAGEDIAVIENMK
Experimental: Cells, grown on 12 mm multiwell-dishes, were incubated with 0.2 nM ^125I-spadin for various times at 37° C. in an Earle's Tris-Hepes buffer (cell binding buffer). Incubations were terminated by washing cells twice with the binding buffer or with the same buffer containing 0.5 M NaCl, pH 4, for 2 min to remove non sequestrated radioactivity (acid-NaCl wash). Cells were harvested with 1 ml of 0.1 N NaOH and counted in a gamma-counter. Non specific binding was determined in the presence of 10 μM unlabeled spadin.

[4] = test system: mice; experiment: Elevated plus-maze; type: in vivo, mouse; settings: spadin i.p. 10^-5 M, diazepam i.p. 0.5 mg/kg
Text: Elevated plus-maze. The apparatus consisted of two open and two enclosed arms of the same size (45×5 cm) with walls 15 cm high. The arms, constructed of black acrylic, radiate from a common central platform (5×5 cm) to form a plus sign. Open arms were arranged opposite to one another, as were closed arms. The maze was elevated to a height of 45 cm above floor level. Each mouse was placed in the central platform facing one of the open arms. The number of entries into the open and closed arms and the time spent on the open and closed arms were recorded during a 5 min test period. Time spent in the unprotected open arms as well as the number of entries in open arms in relation to the total of arm entries are used as experimental indices of anxiety.

[5] = test system: dentate gyrus of the mouse hippocampus; experiment: Hippocampal neurogenesis (BrdU / DCX labeling); type: in vivo
Experimental: Twenty-four hours after the injection of BrdU (120 mg per kg of body weight in a 300 μl bolus), mice were euthanized and transcardially perfused with 4% cold paraformaldehyde. Serial sections of the brains were cut (40 μm) throughout the entire hippocampus on a vibratome (Leica). Every sixth section throughout the hippocampus was processed for BrdU or doublecortin (DCX) immunohistochemistry, as previously described. For each immunodetection, slides were first incubated overnight at 4° C. with a mouse monoclonal anti-BrdU antibody (1:200; Becton-Dickinson) or a goat anti-DCX (1:400, Santa Cruz Laboratories). For chromogenic immunodetection, sections were then incubated for 1 hour in biotin-conjugated species-specific secondary antibodies (1:100; Vector Laboratories) followed by a peroxidase-avidin complex solution according to the manufacturer's protocol. The peroxidase activity of immune complexes was visualized with DAB staining using the VectaStain ABC kit (Vector Laboratories). For fluorescent double-labeling, performed to determine the cell phenotype, sections were incubated overnight at 4° C. with anti-sheep BrdU (1:200, Interchim), anti-goat DCX (1:200, Santa Cruz Laboratories), or an anti-GFAP (Glial Fibrillary acidic protein, marker for astrocytes, 1:250, Dako). […] All BrdU-labeled cells in the granular cell layer and subgranular zone (SGZ) were counted in each section (n=10 and 5 mice per group) at 400× and 1000× magnification under a light microscope (Olympus) by an experimenter blinded to the study code. The total number of BrdU-positive cells per section was multiplied by 6 to obtain the total number of cells per dentate gyrus. The counting of BrdU/DCX labeled cells was performed using a Laser Scanning Confocal Microscope (TCS SP, Leica) equipped with a DMIRBE inverted microscope.

## APLPRWSGPIGVSWGLR [spadin]
[1]
  stimulation of pCREB (quantification of blots): 4 fold
[2]
  amount of spadin recovered in the brain: Identical amounts
[3]
  time for cell-associated radioactivity to reach a plateau: ≤ 30 min
[4]
  time spent in the open arms: had no effect
[5]; 4-day treatment
  BrdU-labelled cells expressing DCX: 85.2% and 85%
[5]; 4-day treatment, spadin i.p. 10^-5 M
  number of BrdU-positive cells in the SGZ versus saline: significantly increased by two-fold
[5]; 15 days
  number of BrdU-positive cells versus saline: maintained
